Assay [1] has as its system HP1 (TAMRA at T37) (DNA, hairpin, T37 replaced by 2'-deoxyuridine bearing TAMRA at C5) CCTGGAGAGGAAGCCAAGTGTTTTCACTTGGCTTCCTCTCCAGG
Kind of assay: fluorescence titration. To be noted: 50 mM NaCl; 10 mM HEPES, 1 mM EDTA, pH 7.4, 25 °C.

The test system of assay [2] is HP1 (TAMRA at T34) (DNA, hairpin, T34 replaced by 2'-deoxyuridine bearing TAMRA at C5) CCTGGAGAGGAAGCCAAGTGTTTTCACTTGGCTTCCTCTCCAGG
As to the kind of experiment: fluorescence titration. To be noted: 50 mM NaCl; 10 mM HEPES, 1 mM EDTA, pH 7.4, 25 °C.

Assay [3] deals with HP2 unlabeled (DNA, hairpin) GCTAGATATATAGCTTTTTAGCTATATATCTAGC
As to the kind of experiment: competition fluorescence titration. To be noted: 50 mM NaCl; 10 mM HEPES, 1 mM EDTA, pH 7.4, 25 °C; TAMRA-HP2 complex displaced.

Drawing on PMC3299850 (2012), this text covers Kd for six molecules.

Each structure is given as a SMILES string.

What is called Kd is the free concentration of one partner at which half of the binding sites on the other are occupied at equilibrium, for simple one-to-one binding. In the case of `CN(C)CCCNC(=O)CCNC(=O)c1cc(NC(=O)CCNC(=O)c2cc(NC(=O)c3cc(NC(=O)CCCNC(=O)c4nc(NC(=O)c5cc(NC(=O)c6nc(NC(=O)c7nccn7C)cn6C)cn5C)cn4C)cn3C)cn2C)cn1C`, the Kd in assay [1] worked out at 50 ± 15 nM.

`CN(C)CCCNC(=O)CCNC(=O)c1cc(NC(=O)c2cc(NC(=O)c3cc(NC(=O)c4cc(NC(=O)CCCNC(=O)c5nc(NC(=O)CCNC(=O)c6nc(NC(=O)c7nccn7C)cn6C)cn5C)cn4C)cn3C)cn2C)cn1C`: the Kd in assay [1] was determined as 140 ± 30 nM.

On to `CN(C)CCCNC(=O)CCNC(=O)c1cc(NC(=O)c2cc(NC(=O)c3nc(NC(=O)CCCNC(=O)c4cc(NC(=O)c5nc(NC(=O)c6nccn6C)cn5C)cn4C)cn3C)cn2C)cn1C`, for which the dissociation constant Kd in assay [1] turned out to be 7.8 ± 1.6 nM.

Regarding `CN(C)CCCNC(=O)CCNC(=O)c1cc(NC(=O)c2cc(NC(=O)c3nc(NC(=O)c4cc(NC(=O)CCCNC(=O)c5cc(NC(=O)c6cc(NC(=O)c7nc(NC(=O)c8nccn8C)cn7C)cn6C)cn5C)cn4C)cn3C)cn2C)cn1C`, in assay [1], the equilibrium dissociation constant (Kd) was determined as 2.3 ± 0.3 nM. `CN(C)CCCNC(=O)CCNC(=O)c1cc(NC(=O)c2nc(NC(=O)c3nc(NC(=O)c4cc(NC(=O)CCCNC(=O)c5cc(NC(=O)c6cc(NC(=O)c7cc(NC(=O)c8nccn8C)cn7C)cn6C)cn5C)cn4C)cn3C)cn2C)cn1C` yielded a dissociation constant (Kd) in assay [2] of 11.4 ± 1 nM. In the case of `CN(CCCN)CCCNC(=O)CCNC(=O)c1cc(NC(=O)c2cc(NC(=O)c3cc(NC(=O)c4cc(NC(=O)CCNC(=O)c5cc(NC(=O)c6cc(NC(=O)CCCNC(=O)c7cc(NC(=O)c8cc(NC(=O)c9cc(NC(=O)CCNC(=O)c%10cc(NC(=O)c%11cc(NC(=O)c%12nccn%12C)cn%11C)cn%10C)cn9C)cn8C)cn7C)cn6C)cn5C)cn4C)cn3C)cn2C)cn1C`, in assay [3], the Kd worked out at 1.8 nM.
